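These data come from cells grown in 96-well plates and exposed to compound for 48 hours at five concentrations. TGI is the concentration that stops growth completely.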 Where a SMILES comes first, the peptide text is derived from it. The star is where a group is joined. Boc = CC(C)(C)OC(=O)*; Bn = c1ccc(C*)cc1
How the values were obtained:
Assay in all cases: NCI tumour cell line growth inhibition, 48 h
786-0 renal = test system: 786-0 renal
HCT-15 colon = test system: HCT-15 colon
M14 melanoma = test system: M14 melanoma
MALME-3M melanoma = test system: MALME-3M melanoma
MCF7 breast = test system: MCF7 breast
MOLT-4 leukemia = test system: MOLT-4 leukemia
NCI-H23 lung = test system: NCI-H23 lung
NCI-H460 lung = test system: NCI-H460 lung
NCI/ADR-RES ovarian = test system: NCI/ADR-RES ovarian
OVCAR-3 ovarian = test system: OVCAR-3 ovarian
RXF 393 renal = test system: RXF 393 renal
U251 CNS = test system: U251 CNS
UACC-257 melanoma = test system: UACC-257 melanoma
UACC-62 melanoma = test system: UACC-62 melanoma

Measured: TGI

O=C1Nc2ccccc2/C1=N/N1C(=O)/C(=C/c2ccccc2S)N=C1c1ccccc1
> 100 µM: all assays above

CNC(=O)OCc1nc(N=[N+]=[N-])n(C)c1COC(=O)NC
88.3 µM: MOLT-4 leukemia
> 10 µM: 786-0 renal
54.5 µM: RXF 393 renal
not listed: M14 melanoma | UACC-62 melanoma
> 100 µM: all other assays above

O=C(c1ccc(Cl)c(Cl)c1)N(C(=O)N1CCN(c2ccccc2)CC1)S(=O)(=O)c1ccccc1
96.2 µM: NCI-H23 lung
41.8 µM: MOLT-4 leukemia
59.1 µM: HCT-15 colon
62.9 µM: U251 CNS
> 100 µM: all other assays above

Nc1ncc(N)c(NCC2(CO)CC(CCc3ccccc3)C2)n1 (configuration not stated)
13.3 µM: OVCAR-3 ovarian
36.5 µM: HCT-15 colon
8.56 µM: MOLT-4 leukemia
23.7 µM: MALME-3M melanoma
27.8 µM: RXF 393 renal
15.9 µM: MCF7 breast
22.8 µM: UACC-257 melanoma
19.6 µM: U251 CNS
30.5 µM: NCI-H460 lung
20.8 µM: NCI-H23 lung
24 µM: M14 melanoma
21.1 µM: UACC-62 melanoma
40.9 µM: NCI/ADR-RES ovarian
22.5 µM: 786-0 renal

N#CCCN(CCCN(C(=O)Nc1ccc(NC(=O)N(CCCN(CCC#N)C(N)=O)c2ccccc2)cc1)c1ccccc1)C(N)=O
> 100 µM: all assays above

Nc1ncnc2c1ncn2[C@@H]1C[C@H](NO)[C@@H](O)[C@H]1O
> 100 µM: all assays above

Cc1ccc(S(=O)(=O)NC(=O)NCC(N)=O)cc1
not listed: OVCAR-3 ovarian
> 100 µM: all other assays above

O=c1[nH]c2cc3[nH]c(=O)c(=O)[nH]c3cc2[nH]c1=O
> 100 µM: all assays above

CC(C)(C)OC(=O)NC(Cc1ccc(OCc2ccccc2)cn1)C(=O)O (configuration not stated)
not listed: M14 melanoma | MOLT-4 leukemia | UACC-62 melanoma
> 100 µM: all other assays above

Brc1ccc(N=Nc2ccc3ccccc3n2)cc1
43.5 µM: UACC-62 melanoma
36.2 µM: U251 CNS
27.1 µM: 786-0 renal
26.4 µM: NCI-H460 lung
not listed: MOLT-4 leukemia | OVCAR-3 ovarian
> 100 µM: all other assays above

COC(=O)C(CC(C)C)NC(=O)CNC(=O)C(Cc1ccc(OCc2ccccc2)cc1)NC(=O)C(COCc1ccccc1)NC(=O)OC(C)(C)C (configuration not stated) (Boc-S(Bn)Y(Bn)GL-OMe; configuration not given here)
not listed: HCT-15 colon | UACC-257 melanoma
> 100 µM: all other assays above

CCC1(CC)C(=O)NN(C(=O)c2ccc(Cl)cc2)C1=O
18.1 µM: MALME-3M melanoma
> 100 µM: all other assays above

O=S1(=O)c2ccccc2-c2nccc3ccnc1c23
6.87 µM: MOLT-4 leukemia
44 µM: NCI-H23 lung
31.7 µM: UACC-62 melanoma
76.1 µM: NCI-H460 lung
not listed: HCT-15 colon
> 100 µM: all other assays above

N#CCN1CCN(CC#N)CCN(CC#N)CCN(CC#N)CC1
not listed: HCT-15 colon
> 100 µM: all other assays above

CCOC(=O)CNC(=O)CNC(=O)CNC(=O)CNNc1c(OCc2ccccc2)c(=O)c1=O
not listed: NCI-H460 lung
> 100 µM: all other assays above

COC(=O)/C(C#N)=C(/NCc1ccccc1)Nc1ccccc1
not listed: UACC-62 melanoma
> 100 µM: all other assays above

COCCNC1CCC(=O)c2[nH]c3ccccc3c21 (configuration not stated)
not listed: UACC-62 melanoma
> 100 µM: all other assays above

CC(=O)c1c2c(cc3c1CC1(C3)Cc3cc4c(c(C(C)=O)c3C1)CCCC4)CCCC2
76.5 µM: MOLT-4 leukemia
not listed: NCI-H460 lung
> 100 µM: all other assays above

CC(C)=CC[C@H]1C[C@@]2(CC=C(C)C)C(=O)/C(=C(/O)c3ccccc3)C(=O)[C@](CC=C(C)C)(C2=O)C1(C)C
25.2 µM: M14 melanoma
11.5 µM: NCI-H460 lung
73.9 µM: NCI-H23 lung
21.5 µM: MCF7 breast
21.4 µM: 786-0 renal
> 100 µM: MOLT-4 leukemia
27.9 µM: MALME-3M melanoma
42.2 µM: NCI/ADR-RES ovarian
19.7 µM: UACC-257 melanoma
13.6 µM: UACC-62 melanoma
20.8 µM: U251 CNS
24.1 µM: RXF 393 renal
26.5 µM: HCT-15 colon

CC(C)(C)OC(=O)NC(Cc1ccc(OCc2ccccc2)cn1)C(N)=O (configuration not stated)
not listed: M14 melanoma | MOLT-4 leukemia | UACC-62 melanoma
> 100 µM: all other assays above

N#Cc1nc(-c2ccc(-c3nc(C#N)c(N)o3)cc2)oc1N
not listed: OVCAR-3 ovarian | U251 CNS
> 10 µM: all other assays above

CNc1cccc2c1C(C)C[C@]1(C)C(=O)Nc3ccccc3[C@H]21 (some centres not stated)
45.4 µM: NCI/ADR-RES ovarian
50 µM: RXF 393 renal
41.1 µM: NCI-H460 lung
41.5 µM: M14 melanoma
39.3 µM: UACC-257 melanoma
34.6 µM: OVCAR-3 ovarian
32.9 µM: 786-0 renal
47.4 µM: MCF7 breast
47.7 µM: MALME-3M melanoma
not listed: U251 CNS
> 100 µM: all other assays above

COC(=O)/C=C1/OC(c2ccc(C)cc2C)=CC1=O
24.2 µM: 786-0 renal
29.9 µM: MALME-3M melanoma
31.1 µM: M14 melanoma | U251 CNS
42.3 µM: NCI/ADR-RES ovarian
26.5 µM: UACC-62 melanoma
61 µM: NCI-H23 lung
29.3 µM: HCT-15 colon
> 100 µM: MOLT-4 leukemia
60.1 µM: OVCAR-3 ovarian
36.5 µM: NCI-H460 lung
28.3 µM: MCF7 breast
24.9 µM: RXF 393 renal

CN(C)CCN=C1Nc2ccccc2C(=O)N2CSCC12 (configuration not stated)
not listed: NCI-H23 lung
> 100 µM: all other assays above

CC(CC(C)[C@H]1CCC2[C@H]3C(CC(=O)[C@@]21C)[C@@]1(C)CCC(O)C[C@H]1C[C@@H]3O)C(=O)O (some centres not stated)
not listed: OVCAR-3 ovarian
> 100 µM: all other assays above

COc1cccc(N2C(=O)C3c4[nH]c5ccc(C)cc5c4C4CCC(C)CC4C3C2=O)c1 (configuration not stated)
47.3 µM: RXF 393 renal
not listed: MOLT-4 leukemia
> 100 µM: all other assays above

Source: PubChem BioAssay (NCI)
